Experiments:
Assay in all cases: Cytostatic cell culture assay (GI50), SRB
Type in all cases: cell-based
Conditions in all cases: 5 days incubation
[1] = test system: Du-145
From the text: (§1) The assay is based on quantification of cell counts by a colorimetric detection of the cell associated proteins. The assay relies on the ability of sulforhodamine B (SRB) to bind to protein components of cells that have been fixed to tissue-culture plates by trichloroacetic acid (TCA). SRB is a bright-pink aminoxanthene dye with two sulfonic groups that bind to basic amino-acid residues under mild acidic conditions, and dissociate under basic conditions. As the binding of SRB is stoichiometric, the amount of dye extracted from stained cells is directly proportional to the cell mass.
(§2) Cell lines: All cell lines were obtained from ATCC (Manassas, Va.). Cultivation media containing Glutamax, and trypsin were purchased from Invitrogen (Carlsbad, Calif.). Doxorubicin, Clofarabine, TCA and SRB were from Sigma-Aldrich (St. Louis, Mo.). Gemcitabine was obtained from Moravek Biochemicals (Brea, Calif.)
(§3) • 1. Trypsinize the sub-confluent cells, count them, and adjust the cell concentrations according to the cell counts listed in Table 1. • 2. Distribute the cells into the 96-well plates in 150 μL of media. Incubate the plates overnight in humidified CO2 incubator at 37° C. • 3. Fix one plate of each cell line with TCA. Discard the cultivation media from the plates by flicking them gently and add 100 ul cold 10% (vol/vol) TCA to each well. Incubate the plates at 4 degree refrigerator for 1 hour. Discard TCA from the plates by flicking them gently. Rinse plates four times in a washing basin containing tap water. Store the plates at room temperature. These plates represent cell counts on day zero. • 4. Prepare a set of medium solutions containing various concentrations of tested compounds by making 5-fold serial dilutions in 96-well plate. Add 50 μL of the diluted compounds per well. Include controls with untreated cells and cells treated with doxorubicin, clofarabine and gemcitabine. • 5. Incubate the plates for 5 days at 37° C. • 6. Fix the plates with TCA. Discard the cultivation media from the plates by flicking them gently and add 100 ul cold 10% (vol/vol) TCA to each well. Incubate the plates at 4 degree refrigerator for 1 hour. Discard TCA from the plates by flicking them gently. Rinse plates four times in a washing basin containing tap water. • 7. Remove excess water by tapping the plates face down, gently on a paper towel. Allow the plates to air-dry at room temperature. • 8. Add 100 ul of 0.057% SRB solution in 1% (vol/vol) acetic acid to each well of the plates fixed with TCA on day zero and five. Leave at room temperature for 30 minutes. • 9. Flick the plates gently to discard SRB. Rinse the plates four times with 1% (vol/vol) Acetic Acid. • 10. Store the plates at 37 degree incubator to facilitate faster drying. • 11. Once the plates are completely dry, add 200 ul of 10 mM Tris base solution (pH 10.5) to each well. Leave at room temperature for 30 minutes for SRB to solubilize. • 12. Measure the OD at 500 nm in a microplate reader • 13. Calculate the percentage of cell-growth inhibition using the next formula: % of control cell growth=100×(ODsample−mean ODday0)/(ODneg control−mean ODday0)
(§4) For GI50 determination, plot a dose-response curve between the compound concentration and percent of growth inhibition. GI50 values can be derived by fitting dose-response curves using sigmoidal dose response equation.

[2] = test system: HCT-15
From the text: as §1, §2, §3, §4

[3] = test system: BT-549
From the text: as §1, §2, §3, §4

[4] = test system: A549
From the text: as §1, §2, §3, §4

[5] = test system: HCT-116
From the text: as §1, §2, §3, §4

[6] = test system: Hs-578
From the text: as §1, §2, §3, §4

[7] = test system: PC3
From the text: as §1, §2, §3, §4

[8] = test system: NCI-H23
From the text: as §1, §2, §3, §4

| Structure (SMILES) | GI50 ([1]; Homo sapiens, DU-145, 120 h) [nM] | GI50 ([2]; Homo sapiens, HCT-15, 120 h) [µM] | GI50 ([3]; Homo sapiens, BT-549, 120 h) [nM] | GI50 ([4]; Homo sapiens, A549, 120 h) [nM] | GI50 ([5]; Homo sapiens, HCT-116, 120 h) [nM] | GI50 ([7]; Homo sapiens, PC-3, 120 h) [nM] | GI50 ([8]; Homo sapiens, NCI-H23, 120 h) [nM] | GI50 ([6]; Hs578, 120 h) [nM] | GI50 [1] [nM] | GI50 [2] [µM] | GI50 [3] [nM] | GI50 [4] [nM] | GI50 [5] [nM] | GI50 [6] [nM] | GI50 [7] [nM] | GI50 [8] [nM] |
| --- | --- | --- | --- | --- | --- | --- | --- | --- | --- | --- | --- | --- | --- | --- | --- | --- |
| CCCOc1nc(N)nc2c1ncn2CCOCP(=O)(N[C@@H](C)C(=O)OCC)Oc1ccccc1 (single isomer, unassigned) [Example 53b] | – | – | – | – | – | – | – | – | 14 | 2.04 | 564 | 647 | 329 | 177 | 180 | 70 |
| CCCOc1nc(N)nc2c1ncn2CCOCP(=O)(Oc1ccccc1)N1CCC[C@H]1C(=O)OCC (stereo partly drawn) [Example 57] | 372 | 5.2 | 1120 | 2420 | 1610 | 696 | 241 | 1110 | – | – | – | – | – | – | – | – |
| CCCCOC(=O)[C@H](C)NP(=O)(COCCn1cnc2c(OCCC)nc(N)nc21)Oc1ccccc1 (single isomer, unassigned) [Example 52a] | 0.3 | 0.553 | 105 | – | – | – | 0.9 | – | – | – | – | 48 | 43 | 13 | 8 | – |
| CCCCOC(=O)[C@H](C)NP(=O)(COCCn1cnc2c(OCCC)nc(N)nc21)Oc1ccccc1 (single isomer, unassigned) [Example 52b] | – | – | – | – | – | – | – | – | 0.3 | 0.517 | 100 | 15 | 11 | 2 | 3 | 1 |
| CCCOc1nc(N)nc2c1ncn2CCOCP(=O)(Oc1ccc(C#N)cc1)N1CCC[C@H]1C(=O)OCC (stereo partly drawn) [Example 63] | 1 | 3.35 | 282 | 14 | 184 | 2 | 1 | 7 | – | – | – | – | – | – | – | – |
| CCCCOc1nc(N)nc2c1ncn2CCOCP(=O)(O)O [Example 4, [2-(2-Amino-6-butoxy-purin-9-yl)-ethoxymethyl]-phosphonic acid] | 235 | 2.98 | 3760 | 4540 | 3130 | 1440 | 633 | 3320 | – | – | – | – | – | – | – | – |
| CCCOc1nc(N)nc2c1ncn2CCOCP(=O)(N[C@@H](C)C(=O)OCC)Oc1ccccc1 (single isomer, unassigned) [Example 53a] | – | 2.11 | – | – | – | – | – | – | 2 | – | 249 | 268 | 154 | 62 | 31 | 5 |
| Nc1nc(OC2CCCCC2)c2ncn(CCOCP(=O)(O)O)c2n1 [Example 6, [2-(2-Amino-6-cyclohexyloxy-purin-9-yl)-ethoxymethyl]-phosphonic acid] | 439 | 13 | 17000 | > 10000 | > 10000 | 3010 | 6000 | 11000 | – | – | – | – | – | – | – | – |
| Nc1nc(OC2CC2)c2ncn(CCOCP(=O)(O)O)c2n1 [Example 8, [2-(2-Amino-6-cyclopropoxy-purin-9-yl)-ethoxymethyl]-phosphonic acid] | 536 | 4.14 | 2710 | 2820 | 5400 | 2830 | 675 | 3340 | – | – | – | – | – | – | – | – |

More lines, main results first:

| GI50 ([1]; Homo sapiens, DU-145, 120 h) [nM] | GI50 ([2]; Homo sapiens, HCT-15, 120 h) [µM] | GI50 ([3]; Homo sapiens, BT-549, 120 h) [nM] | GI50 ([4]; Homo sapiens, A549, 120 h) [nM] | GI50 ([5]; Homo sapiens, HCT-116, 120 h) [nM] | GI50 ([7]; Homo sapiens, PC-3, 120 h) [nM] | GI50 ([8]; Homo sapiens, NCI-H23, 120 h) [nM] | Structure (SMILES) | GI50 ([6]; Hs578, 120 h) [nM] | GI50 [1] [nM] | GI50 [2] [µM] | GI50 [3] [nM] | GI50 [4] [nM] | GI50 [5] [nM] | GI50 [6] [nM] | GI50 [7] [nM] | GI50 [8] [nM] |
| --- | --- | --- | --- | --- | --- | --- | --- | --- | --- | --- | --- | --- | --- | --- | --- | --- |
| 54 | 2.38 | 2990 | 3060 | 1790 | 1010 | 603 | Nc1nc(OC2CCCC2)c2ncn(CCOCP(=O)(O)O)c2n1 [Example 10, [2-(2-Amino-6-cyclopentyloxy-purin-9-yl)-ethoxymethyl]-phosphonic acid] | 2260 | – | – | – | – | – | – | – | – |
| 47 | > 10 | 573 | 736 | 859 | 381 | 28 | CCOC(=O)[C@H](C)NP(=O)(COCCn1cnc2c(OC)nc(N)nc21)N[C@@H](C)C(=O)OCC [Example 28] | 380 | – | – | – | – | – | – | – | – |
| 1280 | 24 | 7600 | 9900 | 9000 | 5400 | 2330 | CCCOc1nc(N)nc2c1ncn2CCOCP(=O)(N[C@H](C)C(=O)OC)N[C@H](C)C(=O)OC [Example 18] | 9100 | – | – | – | – | – | – | – | – |
| 5 | 8.9 | 145 | 187 | 140 | 28 | 14 | CCCCOc1nc(N)nc2c1ncn2CCOCP(=O)(N[C@@H](C)C(=O)OCC)N[C@@H](C)C(=O)OCC [Example 35] | 46 | – | – | – | – | – | – | – | – |
| 108 | > 10 | 1710 | 4090 | 2520 | 372 | 61 | CCOC(=O)[C@H](C)NP(=O)(COCCn1cnc2c(OCCOC)nc(N)nc21)N[C@@H](C)C(=O)OCC [Example 48] | 976 | – | – | – | – | – | – | – | – |
| 8 | 8.3 | 269 | 451 | 372 | 113 | 22 | CCOC(=O)[C@H](C)NP(=O)(COCCn1cnc2c(OC3CCC3)nc(N)nc21)N[C@@H](C)C(=O)OCC [Example 45] | 174 | – | – | – | – | – | – | – | – |
| 2 | 1.49 | 15 | 450 | 43 | 16 | 2 | CCCCOC(=O)[C@@H]1CCCN1P(=O)(COCCn1cnc2c(OCCC)nc(N)nc21)N1CCC[C@H]1C(=O)OCCCC [Example 25] | 8 | – | – | – | – | – | – | – | – |
| 67 | > 10 | 1830 | 736 | 1320 | 591 | 92 | CCCOc1nc(N)nc2c1ncn2CCOCP(=O)(N[C@@H](C)C(=O)OC(C)C)N[C@@H](C)C(=O)OC(C)C [Example 16] | 870 | – | – | – | – | – | – | – | – |
| 2 | 1.95 | 67 | 1050 | 119 | 81 | 9 | CCCCCCOC(=O)[C@@H]1CCCN1P(=O)(COCCn1cnc2c(OCCC)nc(N)nc21)N1CCC[C@H]1C(=O)OCCCCCC [Example 26] | 97 | – | – | – | – | – | – | – | – |
| 28 | > 10 | 266 | 381 | 488 | 275 | 29 | CCCOc1nc(N)nc2c1ncn2CCOCP(=O)(N[C@@H](C)C(=O)OCC)N[C@@H](C)C(=O)OCC [Example 14] | 202 | – | – | – | – | – | – | – | – |
| 17 | 6.3 | 286 | 474 | 269 | 85 | 23 | CCOC(=O)[C@H](C)NP(=O)(COCCn1cnc2c(OC3CCCC3)nc(N)nc21)N[C@@H](C)C(=O)OCC [Example 46] | 96 | – | – | – | – | – | – | – | – |
| 805 | > 10 | > 10000 | 11000 | 11000 | 3760 | 1980 | COCCOc1nc(N)nc2c1ncn2CCOCP(=O)(O)O [Example 11, {2-[2-Amino-6-(2-methoxy-ethoxy)-purin-9-yl]-ethoxymethyl}-phosphonic acid] | 5100 | – | – | – | – | – | – | – | – |

From US8163718B2, “Nucleoside analogues containing phosphonate or phosphonamide groups” (Gilead Sciences, Inc., priority 2008, dated 2012)
